{"source": "PubChem BioAssay AID488888", "about": "(Sanford-Burnham Center for Chemical Genomics, 2010)", "note": "Activity calls are given as the source filed them.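 How the source made its calls: active means mean EC50, the dose giving half of full activation, below a set limit (actives reach about 84 µM in these data); inactive means the rest.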", "data": [{"target": "Alkaline phosphatase, placental type (Homo sapiens) (UniProt P05187)", "sequence (P05187 whole entry, looked up)": "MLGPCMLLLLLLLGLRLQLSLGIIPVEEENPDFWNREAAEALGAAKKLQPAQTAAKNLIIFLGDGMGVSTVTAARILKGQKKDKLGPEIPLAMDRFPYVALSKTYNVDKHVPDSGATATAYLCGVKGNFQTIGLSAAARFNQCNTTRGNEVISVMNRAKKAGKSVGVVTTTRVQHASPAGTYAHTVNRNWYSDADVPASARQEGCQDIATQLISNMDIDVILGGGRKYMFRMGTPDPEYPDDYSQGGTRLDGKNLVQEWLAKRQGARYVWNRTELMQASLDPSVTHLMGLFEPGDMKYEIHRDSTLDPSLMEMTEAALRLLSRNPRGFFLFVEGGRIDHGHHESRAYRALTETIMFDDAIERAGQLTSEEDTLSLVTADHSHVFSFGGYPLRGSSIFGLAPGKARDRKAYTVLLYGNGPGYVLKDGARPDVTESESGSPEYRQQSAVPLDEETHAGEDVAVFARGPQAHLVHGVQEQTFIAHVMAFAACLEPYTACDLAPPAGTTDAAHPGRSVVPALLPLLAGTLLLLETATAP", "assay": "PLAP enzyme activators, dose response, selectivity assay for human IAP activator project, biochemical, uHTS hits, luminescence (AID 488888)", "settings": "purified PLAP, CDP-Star luminescence, 30 min", "values": [{"smiles": "Cc1cc(OCC(=O)Nc2ncn[nH]2)ccc1Cl", "EC50": "17 µM"}, {"smiles": "CC1=NN(c2nc3ccccc3[nH]2)C(=O)/C1=C/N(C)C", "EC50": "15.3 µM"}, {"smiles": "CCOc1cccc(-c2nc(C(N)=O)c3[nH]c(=O)n(-c4cccc(Cl)c4)c3n2)c1O", "EC50": "1.91 µM"}, {"smiles": "NC(CO)C(=O)NNCc1ccc(O)c(O)c1O", "note": "(centres undefined)", "EC50": "11.5 µM"}, {"smiles": "CC(=O)Nc1cccc(C(=O)NNC(=O)c2n[nH]c(=O)c3ccccc23)c1", "EC50": "12.5 µM"}, {"smiles": "CCOC(=O)c1cnc(-n2nc(C)cc2C)nc1NNc1nc(C)cc(C)n1", "EC50": "25 µM"}, {"smiles": "CCC(NC(=S)NC1CCCCC1)c1ccc(C(C)C)cc1", "note": "(centres undefined)", "EC50": "60 µM"}, {"smiles": "O=C(NNC(=S)NCc1ccco1)c1ccccc1Br", "EC50": "13.7 µM"}, {"smiles": "CC(C)(C)OC(=O)N1CCC(NC(=O)c2[nH]cnc2C(=O)Nc2ccon2)CC1", "EC50": "15.2 µM"}, {"smiles": "CC(C)CC(=O)NC(=S)NNC(=O)c1ccc(NC(=O)C2CCCCC2)cc1", "EC50": "61.6 µM"}, {"smiles": "CCOC(=O)c1c(C)[nH]c(C(=O)N/N=C/c2cc([N+](=O)[O-])ccc2O)c1C", "EC50": "23.2 µM"}, {"smiles": "O=C(N/N=C/c1c(O)ccc2ccccc12)c1[nH]ncc1Br", "EC50": "11 µM"}, {"smiles": "CCN(CC)c1ccc(/C=N/NC(=O)c2nnn(-c3nonc3N)c2C(C)C)c(O)c1", "EC50": "73.7 µM"}, {"smiles": "Cc1cccc(CC(Cc2nc3ccccc3[nH]2)c2nc3ccccc3[nH]2)c1", "note": "(centres undefined)", "EC50": "60.8 µM"}, {"smiles": "CN(Cc1ccccc1)C(=O)c1[nH]cnc1C(=O)Nc1nccs1", "EC50": "17.8 µM"}, {"smiles": "COc1ccc(O)c(/C=N/NC(=S)NCCc2ccccc2)c1", "EC50": "19.1 µM"}, {"smiles": "Cc1ccc(NC(=O)NNC(=O)c2cc3ccccc3cc2O)cc1", "EC50": "15.3 µM"}, {"smiles": "CC(C)Oc1ccc(C(=O)Nc2ncn[nH]2)cc1", "EC50": "24.1 µM"}, {"smiles": "CC(C)(C)NC(=O)C(=O)NNC(=O)COc1ccccc1", "EC50": "35.9 µM"}, {"smiles": "O=C(N/N=C/c1c(F)cccc1Cl)c1cc(C2CC2)[nH]n1", "EC50": "66.8 µM"}, {"smiles": "Cc1c(C(=O)N/N=C/c2c(O)ccc3ccccc23)nnn1-c1nonc1N", "EC50": "16.4 µM"}, {"smiles": "Cc1ccsc1C(=O)NNC(=S)NC1CCCCC1", "EC50": "14.3 µM"}, {"smiles": "COc1ccccc1CN1CCC(n2nccc2NC(=O)CCCc2ccccc2)CC1", "EC50": "69 µM"}, {"smiles": "CN(CC(=O)Nc1ccccc1F)CC(=O)Nc1ccc(F)c(F)c1F", "EC50": "28.4 µM"}, {"smiles": "Cc1cccc(-n2ncc3c(NNC(=O)c4ccco4)ncnc32)c1", "EC50": "9.19 µM"}, {"smiles": "Cc1cc(=O)[nH]c(-n2[nH]c3c(c2=O)CCCC3)n1", "EC50": "13.6 µM"}, {"smiles": "COc1cc(NC(=O)NCC2CCN(Cc3ccccc3C)CC2)cc(OC)c1OC", "EC50": "78.9 µM"}, {"smiles": "CCCOCC(O)CC(CC)C(=O)NNC(=S)Nc1ccccc1", "note": "(centres undefined)", "EC50": "16.7 µM"}, {"smiles": "Cc1cc(Br)ccc1SCC(=O)OC/C(O)=C(\\C#N)c1nc2ccccc2[nH]1", "EC50": "25.5 µM"}, {"smiles": "COc1cccc(/C=N\\NC(=O)C2=NNC(=O)C2C)c1O", "note": "(centres undefined)", "EC50": "7.82 µM"}, {"smiles": "Cc1nc2c3ccccc3nc(NNC(=O)CCC(=O)N3CCCC(C)C3)n2n1", "note": "(centres undefined)", "EC50": "13.5 µM"}, {"smiles": "COc1cc(OC)cc(C(=O)NNC(=O)c2nn(C)c(=O)c3ccccc23)c1", "EC50": "13.9 µM"}, {"smiles": "CCc1ccc(/C=N/Nc2ncnc3nc[nH]c23)cc1", "EC50": "13.4 µM"}, {"smiles": "c1ccc(-c2cccc(-c3ccccn3)n2)nc1", "EC50": "27.1 µM"}, {"smiles": "CCn1c(C)nc2cc(C(=O)N/N=C/c3cccc(O)c3O)ccc21", "EC50": "10.9 µM"}, {"smiles": "Cc1[nH]n(-c2nc(-c3ccccc3)cc(=O)[nH]2)c(=O)c1CCO", "EC50": "30.8 µM"}, {"smiles": "C=CCn1c(O)c(N=Nc2ccccc2O)c2ccccc21", "EC50": "0.663 µM"}, {"smiles": "O=C(NNC(=S)NC(=O)c1ccccc1[N+](=O)[O-])c1ccccc1O", "EC50": "10.5 µM"}, {"smiles": "Cc1nc2c3ccccc3nc(NNC(=O)CCC(=O)NCCC(C)C)n2n1", "EC50": "13.9 µM"}, {"smiles": "Cc1nc2c3ccccc3nc(NNC(=O)CCC(=O)NCCN3CCN(c4ccccc4)CC3)n2n1", "EC50": "15.3 µM"}, {"smiles": "O=C(/C=C/c1cccs1)NC(=S)NNC(=O)c1ccccc1O", "EC50": "12.7 µM"}, {"smiles": "Cc1cc(C)cc(OCC(=O)NNC(=O)c2cc(C)[nH]n2)c1", "EC50": "18.7 µM"}, {"smiles": "O=C(CCN1C(=O)/C(=C/c2ccccc2Cl)SC1=S)NNC(=O)c1ccccc1O", "EC50": "25.3 µM"}, {"smiles": "COc1ccccc1C1=NN(C2=NN=C(N)Cc3ncnn32)C(O)(C(F)(F)F)C1", "note": "(centres undefined)", "EC50": "12.3 µM"}, {"smiles": "CSCCC(NS(=O)(=O)c1ccc(C)cc1)C(=O)NNC(=O)c1csc(N2CCOCC2)n1", "note": "(centres undefined)", "EC50": "16.1 µM"}, {"smiles": "COc1cc(NC(=O)NCC2CCN(Cc3ccccc3Cl)CC2)cc(OC)c1OC", "EC50": "64.2 µM"}, {"smiles": "O=C(NC(=S)NNC(=O)c1ccccc1O)c1ccc(F)cc1", "EC50": "13.6 µM"}, {"smiles": "C=CCN1C(=O)C2(NNc3ccccc3O2)c2ccccc21", "note": "(centres undefined)", "EC50": "0.718 µM"}, {"smiles": "CC(C)C(=O)NC(=S)Nc1ccccc1C(=O)Nc1ccccc1", "EC50": "9.82 µM"}, {"smiles": "C[C@@H](NC(=O)c1[nH]cnc1C(=O)Nc1ccon1)c1ccccc1", "EC50": "19.8 µM"}, {"smiles": "O=C(Nc1ccon1)c1nc[nH]c1C(=O)NCc1ccccc1", "EC50": "15.5 µM"}, {"smiles": "O=C(Cc1ccc(Cl)c(Cl)c1)NNC(=S)NCC1CCCO1", "note": "(centres undefined)", "EC50": "20.7 µM"}, {"smiles": "CSCCC(NS(=O)(=O)c1ccccc1F)C(=O)NNC(=O)c1csc(N2CCOCC2)n1", "note": "(centres undefined)", "EC50": "12.5 µM"}, {"smiles": "CCOc1ccc(CC(=O)NNC(=S)NC2CCCCC2)cc1OCC", "EC50": "20.4 µM"}, {"smiles": "CC(C)n1cc(CN2CCC(C(=O)Nc3cccc(-c4cccc(Cl)c4)c3)CC2)cn1", "EC50": "78.1 µM"}, {"smiles": "COc1ccccc1CNC(=O)CN(c1ccc(C)cc1)S(=O)(=O)c1c(C)noc1C", "EC50": "88.3 µM"}, {"smiles": "O=C(CCCCC(=O)NNC(=O)COc1ccccc1)NNC(=O)COc1ccccc1", "EC50": "12 µM"}, {"smiles": "COc1ccc(C2=NN(C3=NN=C(N)Cc4ncnn43)C(O)(C(F)(F)F)C2)cc1", "note": "(centres undefined)", "EC50": "14.4 µM"}, {"smiles": "Cc1nn(C)c(C(=O)NNC(=S)NCc2ccccc2)c1Cl", "EC50": "18.6 µM"}, {"smiles": "COc1cc(CN2CCC(n3nccc3NC(=O)CCCc3ccccc3)CC2)ccc1F", "EC50": "81.4 µM"}, {"smiles": "O=C(NNC(=S)NC(=O)c1ccccc1)c1cccnc1", "EC50": "18.7 µM"}, {"smiles": "O=c1cc(-c2ccccc2)[nH]n1-c1nc2ccccc2[nH]1", "EC50": "15.2 µM"}, {"smiles": "COc1ccccc1CCNC(=O)C1CCN(c2nnc(C)c3c(C)n(-c4ccc(C)cc4)nc23)CC1", "EC50": "56 µM"}, {"smiles": "CC(NC(=S)NC1CCC(C(C)(C)C)CC1)c1ccccc1", "note": "(centres undefined)", "EC50": "41.1 µM"}, {"smiles": "O=C(N/N=C/c1ccc(O)cc1O)C(=O)N/N=C/c1ccc(O)cc1O", "EC50": "5.73 µM"}, {"smiles": "COc1ccc(CN2CCC(n3nccc3NC(=O)CCCc3ccccc3)CC2)cc1C", "EC50": "71.6 µM"}, {"smiles": "CCC(C)(C)C1CCc2[nH]nc(C(=O)N/N=C(\\C)c3ccco3)c2C1", "note": "(centres undefined)", "EC50": "59.3 µM"}, {"smiles": "Cn1c(/C(C#N)=C(\\O)c2ccc(Br)s2)nc2ccccc21", "EC50": "62.2 µM"}, {"smiles": "O=Nc1[nH]c(=O)c(/C=C(\\O)c2ccccc2)nc1NO", "EC50": "9.75 µM"}, {"smiles": "CC1C(=O)NN=C1C(=O)N/N=C\\c1ccc(O)cc1O", "note": "(centres undefined)", "EC50": "13.2 µM"}, {"smiles": "O=C(O)c1ccccc1C(=O)Nc1cc(-c2ccccc2)[nH]n1", "EC50": "> 100 µM (inactive)"}, {"smiles": "O=C(NN1C(=O)CSC1=S)C(=O)NN1C(=O)CSC1=S", "EC50": "14.5 µM"}, {"smiles": "Cc1ccc(O)c(/C=N/NC(=O)c2[nH]ncc2Br)c1", "EC50": "75.5 µM"}, {"smiles": "CC(NS(=O)(=O)c1ccc(Br)cc1)C(=O)Nc1nc2ccccc2[nH]1", "note": "(centres undefined)", "EC50": "14.7 µM"}, {"smiles": "CCOCCCNC(=O)CCC(=O)NNc1nc2ccccc2c2nc(-c3ccccc3)nn12", "EC50": "19.1 µM"}, {"smiles": "O=C1Nc2ccc(Br)cc2C12NNc1ccccc1O2", "note": "(centres undefined)", "EC50": "0.55 µM"}, {"smiles": "Cc1nc(Nc2nc3c(c(=O)[nH]2)CCC3)nc2ccccc12", "EC50": "18.7 µM"}, {"smiles": "CN(C)S(=O)(=O)c1cccc(NC(=S)NNC(=O)c2cc3ccccc3cc2O)c1", "EC50": "13.5 µM"}, {"smiles": "CCn1nc(C)c(CN2CCC(C(=O)Nc3cccc(-c4cccc(F)c4)c3)CC2)c1C", "EC50": "53.7 µM"}, {"smiles": "Cc1cc(C)cc(CC(Cc2nc3ccccc3[nH]2)c2nc3ccccc3[nH]2)c1", "note": "(centres undefined)", "EC50": "82.7 µM"}, {"smiles": "CCOc1cc(/C=N/NC(=O)C(=O)N/N=C/c2ccc(O)c(OCC)c2)ccc1O", "EC50": "70 µM"}, {"smiles": "COc1ccccc1N(C)S(=O)(=O)c1ccc(Cl)c(C(=O)NNC(=O)c2ccccc2O)c1", "EC50": "19.5 µM"}, {"smiles": "Cc1cccc(NS(=O)(=O)c2cccc(C(=O)NNC(=O)c3ccccc3O)c2)c1", "EC50": "42.3 µM"}, {"smiles": "O=C(O)C1OC(Oc2c(-c3ccc(O)c(O)c3)oc3cc(O)cc(O)c3c2=O)C(O)C(O)C1O", "note": "(centres undefined)", "EC50": "> 100 µM (inactive)"}, {"smiles": "Cc1ccc(-c2cc(C(=O)N/N=C/c3ccccc3O)n[nH]2)o1", "EC50": "8.04 µM"}, {"smiles": "CCn1c(C)nc2cc(C(=O)NNC(=S)Nc3ccccc3)ccc21", "EC50": "14.7 µM"}, {"smiles": "Cc1ccc(S(=O)(=O)NCCC(=O)NNC(=O)COc2ccc(Br)cc2)cc1C", "EC50": "16.7 µM"}, {"smiles": "O=c1oc(-c2ccc(O)c(O)c2)cc2cc(O)cc(O)c12", "EC50": "> 100 µM (inactive)"}, {"smiles": "Cc1nc(S/C(=C/c2ccc(-c3ccc(Cl)cc3)o2)C(=O)O)n[nH]1", "EC50": "13.2 µM"}, {"smiles": "COc1ccc(OC)c(NC(=O)c2cc(-c3cc(C)ccc3O)n[nH]2)c1", "EC50": "23.1 µM"}, {"smiles": "CCOc1ccc(/C=N/NC(=O)c2[nH]ncc2Br)c(O)c1", "EC50": "11.2 µM"}, {"smiles": "CCOc1ccccc1CN1CCC(n2nccc2NC(=O)CCc2ccccc2)CC1", "EC50": "84 µM"}, {"smiles": "OC(c1nc2ccc(F)cc2[nH]1)C(O)c1nc2ccc(F)cc2[nH]1", "note": "(centres undefined)", "EC50": "10.5 µM"}, {"smiles": "O=c1c2ccccc2nc(N/N=C/c2c(O)ccc3ccccc23)n1O", "EC50": "35.2 µM"}, {"smiles": "O=C(NNC(=S)NC1CCCCC1)c1ccccc1Br", "EC50": "16.4 µM"}, {"smiles": "CC(C)Oc1ccc(CCC(=O)NNC(=S)NCc2ccccc2)cc1", "EC50": "21.2 µM"}, {"smiles": "Cc1cccc(OCC(=O)NNC(=O)c2ccc3nc[nH]c3c2)c1", "EC50": "15.6 µM"}, {"smiles": "Cc1cc(C(=O)NC2CC(C)(C)Cc3c2cnn3-c2ccccc2)n[nH]1", "note": "(centres undefined)", "EC50": "53.1 µM"}, {"smiles": "Cc1ccccc1CN1CCC(n2nccc2NC(=O)CCCc2ccccc2)CC1", "EC50": "75.2 µM"}]}]}
